Data reported in patent US12577231B2, “Androgen receptor PROTACS” (GlaxoSmithKline Intellectual Property Development Limited, priority 2023, dated 2026).
Residue numbers refer to the chain shown, from its start.

Columns and labels:
[1] = target: T1, Androgen Receptor, VCaP (AR wild type and amplified) (Homo sapiens, UniProt P10275); test: Androgen Receptor Degradation-Imaging Assay, VCaP cell line; format: cell-based; conditions: 16 hours treatment, maximum observed degradation
T1 construct: endogenous in cells; host or cells: VCaP
T1 sequence (P10275 1-920): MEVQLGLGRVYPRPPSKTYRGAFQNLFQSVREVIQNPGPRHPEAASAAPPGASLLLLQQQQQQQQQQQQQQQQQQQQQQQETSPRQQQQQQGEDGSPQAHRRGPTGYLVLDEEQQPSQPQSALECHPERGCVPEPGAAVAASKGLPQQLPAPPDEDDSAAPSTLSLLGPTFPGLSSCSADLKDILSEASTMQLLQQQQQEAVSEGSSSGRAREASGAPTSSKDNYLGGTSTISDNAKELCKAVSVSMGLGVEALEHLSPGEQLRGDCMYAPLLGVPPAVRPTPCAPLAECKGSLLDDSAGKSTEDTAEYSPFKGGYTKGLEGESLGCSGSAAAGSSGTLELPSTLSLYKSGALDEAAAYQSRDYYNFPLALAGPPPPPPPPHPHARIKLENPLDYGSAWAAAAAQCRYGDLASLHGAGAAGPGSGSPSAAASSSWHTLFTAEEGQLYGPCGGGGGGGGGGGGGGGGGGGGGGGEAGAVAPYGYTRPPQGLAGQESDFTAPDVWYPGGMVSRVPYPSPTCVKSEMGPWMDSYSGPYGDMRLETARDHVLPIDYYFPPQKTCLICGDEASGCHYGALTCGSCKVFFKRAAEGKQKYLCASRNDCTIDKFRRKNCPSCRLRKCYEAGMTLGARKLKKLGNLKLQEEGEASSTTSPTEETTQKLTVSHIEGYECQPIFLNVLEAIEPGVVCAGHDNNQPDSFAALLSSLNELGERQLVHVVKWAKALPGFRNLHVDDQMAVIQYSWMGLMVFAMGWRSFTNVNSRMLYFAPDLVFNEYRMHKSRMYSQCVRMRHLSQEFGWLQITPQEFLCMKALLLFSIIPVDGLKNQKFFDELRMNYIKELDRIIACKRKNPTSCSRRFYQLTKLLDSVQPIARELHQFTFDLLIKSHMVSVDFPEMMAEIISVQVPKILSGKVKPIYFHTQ
Description: (§1) Degradation of Androgen Receptor (AR) protein in human prostate cancer cell lines (MDA-PCa-2b (AR T878A/L702H), LNCaP (AR T878A), VCaP (AR wild type and amplified) 22RV1 (AR H875Y) and PC3 (AR negative control)) treated with AR PROTACs was quantified using immunofluorescence. Prostate cancer cells were plated (MDA-PCa-2b, and VCaP 16,000 cells/well; LNCaP and 22RV1 32,000 cells/well, and PC3 8,000 cells/well) in an optical bottom 96-well cell culture plate and allowed to attach overnight. The prostate cancer cell lines were treated for 16 hours with a 10-point 3-fold dilution series (dose range=0.02 nM to 333 nM). PC3 is included as an AR negative control and not treated with compound. Cells are fixed and permeabilized with 4% formaldehyde, blocked with 10% goat serum in immunofluorescence (IF) buffer (130 mM NaCl, 7 mM Na2HPO4, 3.5 mM NaH2PO4, 7.7 mM NaN3, 0.1% BSA, 0.2% Triton X, 0.05% Tween 20) prior to overnight incubation with rabbit antibody specific for C terminus of AR (commercially available from RevMaB Biosciences). Following washes with IF buffer, cells were incubated with fluorescent secondary antibody (Goat anti-rabbit Alexa 647; commercially available from Invitrogen) and Hoechst nuclear stain (commercially available from Themo Scientific) prior to quantification of nuclear AR levels via Opera Phenix high-content fluorescent imager using a 40× water objective. Image analysis was performed with Harmony software.
(§2) The averaged nuclear Alexa 647 median fluorescence intensity (MFI) of PC3 cells is subtracted from the nuclear Alexa 647 MFI of PROTAC treated and DMSO control treated cells. % AR remaining is calculated for PROTAC treatments as a percent of the DMSO control (MFI PROTAC treated/MFI DMSO control treated)*100). DC50 and the Dmax values, were obtained from these normalised values fitted with a 4-parameter sigmoidal response curve (Xlfit software). The DC50 is the interpolated concentration of PROTAC corresponding to 50% of the protein being degraded, and the Dmax parameter is the maximum experimentally observed degradation.

[2] = target: T2, Androgen Receptor, MDA-PCa-2b (AR T878A/L702H) (Homo sapiens, UniProt P10275, L702H/T878A); test: Androgen Receptor Degradation-Imaging Assay, MDA-PCa-2b cell line; format: cell-based; conditions: 16 hours treatment, maximum observed degradation
T2 construct: host or cells: MDA-PCa-2b
T2 sequence (P10275 1-920 L702H/T878A): T1 sequence (P10275 1-920) with L702H, T878A
Description: as §1, §2

Dmax [1]	Dmax [2]	Compound
≥ 80%	≥ 80%	CC1(C)[C@H](NC(=O)c2ccc(N3CCC(CN4CCC(n5ccc6c(N7CCC(=O)NC7=O)ncnc65)CC4)CC3)c(F)c2)C(C)(C)[C@H]1Oc1ccc(C#N)c2ncccc12 [Example 47, N-((1r,3r)-3-((8-Cyanoquinolin-5-yl)oxy)-2,2,4,4-tetramethylcyclobutyl)-4-(4-((4-(4-(2,4-dioxotetrahydropyrimidin-1(2H)-yl)-7H-pyrrolo[2,3-d]pyrimidin-7-yl)piperidin-1-yl)methyl)piperidin-1-yl)-3-fluorobenzamide]
≥ 80%	≥ 80%	CC1(C)[C@H](NC(=O)c2ccc(N3CCC(CN4CCC(n5ccc6c(N7CCC(=O)NC7=O)cc(F)cc65)CC4)CC3)c(F)c2)C(C)(C)[C@H]1Oc1ccc(C#N)c2ncccc12 [Example 32, N-((1r,3r)-3-((8-Cyanoquinolin-5-yl)oxy)-2,2,4,4-tetramethylcyclobutyl)-4-(4-((4-(4-(2,4-dioxotetrahydropyrimidin-1(2H)-yl)-6-fluoro-1H-indol-1-yl)piperidin-1-yl)methyl)piperidin-1-yl)-3-fluorobenzamide]
≥ 80%	≥ 80%	CC1(C)[C@H](NC(=O)c2ccc(N3CCC(CN4CCC(n5ncc6c(N7CCC(=O)NC7=O)nccc65)CC4)CC3)c(F)c2)C(C)(C)[C@H]1Oc1ccc(C#N)c2ncccc12 [Example 39, N-((1r,3r)-3-((8-Cyanoquinolin-5-yl)oxy)-2,2,4,4-tetramethylcyclobutyl)-4-(4-((4-(4-(2,4-dioxotetrahydropyrimidin-1(2H)-yl)-1H-pyrazolo[4,3-c]pyridin-1-yl)piperidin-1-yl)methyl)piperidin-1-yl)-3-fluorobenzamide]
≥ 80%	≥ 80%	CC1(C)[C@H](NC(=O)c2ccc(N3CCC4(CC3)CC(N3CCC(n5ncc6c(N7CCC(=O)NC7=O)cccc65)CC3)C4)c(F)c2)C(C)(C)[C@H]1Oc1ccc(C#N)c2ncccc12 [Example 49, N-((1r,3r)-3-((8-Cyanoquinolin-5-yl)oxy)-2,2,4,4-tetramethylcyclobutyl)-4-(2-(4-(4-(2,4-dioxotetrahydropyrimidin-1(2H)-yl)-1H-indazol-1-yl)piperidin-1-yl)-7-azaspiro[3.5]nonan-7-yl)-3-fluorobenzamide]
≥ 80%	≥ 80%	CC1(C)[C@H](NC(=O)c2ccc(N3CCC(CN4CCC(n5ccc6c(N7CCC(=O)NC7=O)ncnc65)CC4)CC3)cc2)C(C)(C)[C@H]1Oc1ccc(C#N)c2ncccc12 [Example 28, N-((1r,3r)-3-((8-Cyanoquinolin-5-yl)oxy)-2,2,4,4-tetramethylcyclobutyl)-4-(4-((4-(4-(2,4-dioxotetrahydropyrimidin-1(2H)-yl)-7H-pyrrolo[2,3-d]pyrimidin-7-yl)piperidin-1-yl)methyl)piperidin-1-yl)benzamide]
≥ 80%	≥ 80%	CC1(C)[C@H](NC(=O)c2ccc(N3CCC(O)(CN4CCC(n5ncc6c(N7CCC(=O)NC7=O)cccc65)CC4)CC3)c(F)c2)C(C)(C)[C@H]1Oc1ccc(C#N)c2ncccc12 [Example 48, N-((1r,3r)-3-((8-Cyanoquinolin-5-yl)oxy)-2,2,4,4-tetramethylcyclobutyl)-4-(4-((4-(4-(2,4-dioxotetrahydropyrimidin-1(2H)-yl)-1H-indazol-1-yl)piperidin-1-yl)methyl)-4-hydroxypiperidin-1-yl)-3-fluorobenzamide]
≥ 80%	≥ 80%	COc1cc(O[C@H]2C(C)(C)[C@H](NC(=O)c3ccc(N4CCC(CN5CCC(n6ncc7c(N8CCC(=O)NC8=O)cccc76)CC5)CC4)cc3)C2(C)C)ccc1C#N [Example 15, N-((1r,3r)-3-(4-Cyano-3-methoxyphenoxy)-2,2,4,4-tetramethylcyclobutyl)-4-(4-((4-(4-(2,4-dioxotetrahydropyrimidin-1(2H)-yl)-1H-indazol-1-yl)piperidin-1-yl)methyl)piperidin-1-yl)benzamide]
≥ 80%	≥ 80%	CC1(C)[C@H](NC(=O)c2ccc(N3CCC(CN4CCC(n5ncc6c(N7CCC(=O)NC7=O)cccc65)CC4)CC3)c(F)c2)C(C)(C)[C@H]1Oc1ccc(C#N)c2ncccc12 [Example 6, N-((1r,3r)-3-((8-Cyanoquinolin-5-yl)oxy)-2,2,4,4-tetramethylcyclobutyl)-4-(4-((4-(4-(2,4-dioxotetrahydropyrimidin-1(2H)-yl)-1H-indazol-1-yl)piperidin-1-yl)methyl)piperidin-1-yl)-3-fluorobenzamide]
